Tests used:
NanoLuc [1] = target: T1, NanoLuc (Oplophorus gracilirostris, UniProt Q9GV45, A31E/A60N/A81I/F95D/I117V/K70R/L54V/L99Q/M102K/N193R/P142E/Q151K/Q38R/Q45L/V71I/Y165I); assay: Evaluation of luminescence brightness, NanoLuc expressed in COS-7 cells (live cells and lysates); format: cell-based; details: COS-7 live cells and lysates (FIGS. 10, 11); 100 μM diluted luminescent substrate solution
T1 construct: host or cells: COS-7
Protocol: (§1) For luminescence measurements, the IVIS Imaging System purchased from PerkinElmer (old name: Caliper Life Sciences) was used.
(§2) As live cells expressing luminescent enzymes, COS-7 cells derived from the kidney of an African green monkey were used, and the evaluations were also conducted with the lysates produced by the lysis of these live cells.
(§3) The COS-7 cells derived from the kidney of the African green monkey were seeded in a 6-well microplate and were cultured in a CO2 incubator until 70% of the bottom area was covered by the cells. Using TransIT-LT1 reagent (Mirus), the plasmid encoding each of the following marine bioluminescent enzymes was transiently expressed in cells in each well.
(§4) After this lipofection, the cells were cultured in a CO2 incubator for one day. The cells were then subcultured into a 96-well microplate and further incubated for one day.
(§5) The wells with cells transfected with the same plasmid were conceptually divided into two, where one was used for lysate experiments and the other for live cell experiments. For the lysate, first, the cell medium was removed from the 96-well microplate, and then 40 μL of cell lysis reagent (lysate) available from Promega K. K. was injected into each well and the plate was incubated for 15 minutes. For the live cell experiments, after the cell medium was completely removed, the microplate was immediately sealed to prevent the sample evaporation until the luminescence measurements.
(§6) Each luminescent substrate was first dissolved in methanol (PEG400, 25%) to 5 mM (stock solution), which was further diluted with phosphate-buffered saline (PBS) to 100 μM (this solution is hereinafter referred to as diluted luminescent substrate solution). This “diluted luminescent substrate solution” was dispensed in advance into each empty well of a 96-well microplate. […] The bioluminescence brightness from the 96-well black frame microplate was measured, and analyzed using the dedicated software Living Image ver. […]

ALuc16 = assay: Evaluation of luminescence brightness, ALuc16 expressed in COS-7 cells (live cells and lysates); format: cell-based, luminescent plankton; details: COS-7 live cells and lysates (FIGS. 1, 2); 100 μM diluted luminescent substrate solution
Protocol: as §1, §2, §3, §4, §5, §6

ALuc47 = assay: Evaluation of luminescence brightness, ALuc47 expressed in COS-7 cells (live cells and lysates); format: cell-based, luminescent plankton; details: 100 μM diluted luminescent substrate solution
Protocol: as §1, §2, §3, §4, §5, §6

[2] = system: Renilla luciferase 8.6-535SG (RLuc8.6SG); assay: Evaluation of luminescence brightness, RLuc8.6SG expressed in COS-7 cells (live cells and lysates); format: cell-based, Renilla reniformis; details: COS-7 live cells and lysates (FIGS. 7, 8); 100 μM diluted luminescent substrate solution
Protocol: as §1, §2, §3, §4, §5, §6

[3] = system: ALuc16, ALuc47, RLuc8.6SG, NanoLuc; assay: Enzyme specificity from luminescence brightness across the luminescent enzymes; format: cell-based; details: comparison of luminescence among ALuc16, ALuc47, RLuc8.6SG
Protocol: as §1, §2, §3, §4
The wells with cells transfected with the same plasmid were conceptually divided into two, where one was used for lysate experiments and the other for live cell experiments. […] For the live cell experiments, after the cell medium was completely removed, the microplate was immediately sealed to prevent the sample evaporation until the luminescence measurements. […]

NanoLuc [4] = target: T1, NanoLuc; assay: Evaluation of bioluminescence spectrum, NanoLuc lysate; format: biochemical; details: COS-7 lysate (FIG. 12)
Protocol: Measurements were conducted using the luminescence spectrum device AB-1850 available from ATTO Corporation.
The measured spectra were obtained with a measurement parameter-tuned detector.
The COS-7 cells were seeded in a 6-well microplate and were cultured in a CO2 incubator until 70% of the bottom area was covered by the cells. Using TransIT-LT1 reagent (Mirus), the plasmid encoding each of the following marine bioluminescent enzymes was transiently expressed in cells in each well.
After this lipofection, the cells were cultured in a CO2 incubator for one day. After the cell medium was completely removed from the 6-well microplate, 200 μL of cell lysis reagent (lysate) available from Promega K. K. was added to each well and the microplate was incubated at room temperature for 15 minutes.
Twenty microliters of this lysate were dispensed into each PCR tube, and 20 μL of the 100 μM diluted luminescent substrate solution was added at the time of luminescence brightness evaluation. The PCR tubes were immediately placed in a spectrophotometer (AB-1850, ATTO Corporation), and the bioluminescence spectrum was measured in the high-sensitivity mode with integration modes of 0.5 seconds, 5 seconds, 10 seconds, and 30 seconds. […]

[5] = COS-7 live cells and lysates (FIGS. 4, 5)

T1 sequence (Q9GV45 28-196 with tags or gaps with the stated changes limits assumed): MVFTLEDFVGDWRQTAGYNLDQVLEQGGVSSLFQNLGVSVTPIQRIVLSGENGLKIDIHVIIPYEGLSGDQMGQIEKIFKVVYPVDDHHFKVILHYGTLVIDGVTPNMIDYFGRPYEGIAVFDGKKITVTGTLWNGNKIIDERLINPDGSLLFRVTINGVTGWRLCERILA

Row | Structure (SMILES) | luminescence for NanoLuc (NanoLuc [1]) | luminescence for ALuc16 (ALuc16) | luminescence for ALuc47 (ALuc47; [5]) | luminescence for RLuc8.6SG [2] | enzyme specificity [3] | luminescence spectral peak for NanoLuc (NanoLuc [4]) [nm] | luminescence for ALuc47 (ALuc47; COS-7 live cells (FIG. 4 only cited))
1 | O=c1c(Cc2ccc(O)cc2)nc2c(Cc3ccccc3)[nH]c(-c3ccc4c(c3)OCCO4)cn1-2 [structural formula (1-1)] | no luminescence activity | high luminescence at high brightness | slight luminescence | slight luminescence | enzyme specificity for ALuc16 |  | 
2 | O=c1c(Cc2ccc(O)cc2)nc2c(Sc3ccccc3)[nH]c(-c3ccc(O)cc3)cn1-2 [structural formula (2-1)] | luminescence activity | luminescence activity | also showed luminescence | luminescence activity |  | 507 | 
3 | O=c1c(Cc2ccc(O)cc2)nc2c(Sc3ccc(F)cc3)[nH]c(-c3ccc(O)cc3)cn1-2 [structural formula (2-2)] | slight luminescence | luminescence activity |  | luminescence activity |  |  | slight luminescence
